Results reported in patent EP0200211A1, “Diagnostic radiopharmaceutical compounds” (THE RESEARCH FOUNDATION OF STATE UNIVERSITY OF NEW YORK, priority 1985, dated 1986).

Test: Autoradiogram comparison of rat brain distribution of radioactivity after intravenous injection
Format: in vivo, Sprague-Dawley male rat
Details: autoradiograms at 2 and 15 minutes after injection, statement concerns the second (15 minute) autoradiogram
Source text: • Figure 1 is an autoradiogram of rat brain distribution of radioactivity two (2) minutes after intravenous injection with a radioactive compound of the prior art. • Figure 2 is an autoradiogram of rat brain distribution of radioactivity fifteen (15) minutes after intravenous injection with a radioactive compound of the prior art. • Figure 3 is an autoradiogram of rat brain distribution of radioactivity two (2) minutes after intravenous injection with a radioactive compound of the invention. • Figure 4 is an autoradiogram of rat brain distribution of radioactivity fifteen (15) minutes after intravenous injection with a radioactive compound of the invention.
Autoradiograms were made of Sprague-Dawley male rat brains of animals that were intravenously injected with 6-[N,N-diethylamino]methyl-3,3,10,10-tetramethyl-1,2-dithia-5,8-diazacylcodecane technetium-99m complex of the invention and 10,10,13,13-tetramethyl-11,12-dithia-8,15-diazaspiro-[5.9)pentadecane-technetium-99m complex of the prior art. The autoradiograms were taken at 2 and 15 minute intervals after injection.

definition of the autoradiogram of rat brain | Structure (SMILES)
sharp definition obtained and retained | CCN(CC)CC1CNCC(C)(C)SSC(C)(C)CN1.[99Tc] (centres unmarked) [6-[N,N-diethylamino]methyl-3,3,10,10-tetramethyl-1,2-dithia-5,8-diazacylcodecane technetium-99m complex]
lack of clear definition | CC1(C)CNCC2(CCCCC2)NCC(C)(C)SS1.[99Tc] [10,10,13,13-tetramethyl-11,12-dithia-8,15-diaza spiro [5.9] pentadecane-technetium-99m complex]
